The subject of test [1] is experimental model of RPGN. Briefly: anti-GBM RPGN model, continuous infusion of selective ETA or ETB antagonist by subcutaneous osmotic minipumps. Format: in vivo, C57B1/6J mice. Conditions: 100 nmol·kg−1·day−1 by minipump; for plasma urea concentration (index of renal failure): vehicle 34.3±6.1 mmol/L.
For test [2], the system named is murine podocyte cell line. Nature of the test: migration assay in cultured podocytes (Ibidi Culture-Insert, gap coverage). Conditions: coverage of 500 μm gap after 20 hours of culture; vs vehicle (RPMI with DMSO). The format is cell-based, mouse. As to the method: Selected experiments (migration studies) were performed in a murine podocyte cell line (Schiwek D et al, 2004) derived from isolated from kidneys of Immorto-Mouse® mice (Charles River, St. Louis, Mo., USA), carrying a temperature-sensitive mutant of the immortalizing SV40 large T antigen under control of the interferon-gamma (INF-γ)-inducible H-2 Kb promoter. Migration assays were performed in μ-Dish 35 mm high with Culture-Insert (Ibidi). Ibidi's wounding inserts were used for cell migration or cell invasion studies. […] The inserts can be inserted into any bio-compatible surface and used to culture one or multiple cell lines. These inserts have two wells that create 2 distinct cell patches with a defined gap of 500 μm. The coverage of this gap after 20 hours of culture was assessed in the presence of the selective ETA antagonist BQ123 or the ETB antagonist BQ 788 (Calbiochem) or vehicle (RPMI with DMSO).

In test [3] the test system is accelerated anti-GBM RPGN model. Briefly: accelerated anti-GBM RPGN model, bosentan mixed with food. The format is in vivo, C57B1/6J mice. The settings on record: bosentan 50 mg/kg/d oral in food.
Method: Male and female C57B1/6 mice weighing 20-25 g, 10 weeks old, purchased from Charles River France, were housed in a room with a 12 h light-dark cycle with water and food ad libido. […] The animals were sacrificed by injection of pentobarbital (100 mg/kg i.p.)
The accelerated anti-GBM RPGN model was used, as previously described in Topham P S et al, 1999 and Lloyd C M et al, 1997. Briefly, C57B1/6J male mice were given subcutaneous injections of 200 μg normal sheep IgG (100 μl into each flank of normal sheep IgG (Sigma) diluted to 1 mg/ml in a solution of 50% Freund's complete adjuvent and 50% saline). Six days later (day 1), GN was induced by intravenous injection of 50 μL sheep anti-glomerular basement membrane (GBM) serum diluted to 70 mg/ml in saline. Serum injections were repeated twice (on days 2 and 3), with the serum volume increased to 250 μL. From days 0 to 14, mice were given bosentan, an orally active endothelin antagonist (designated chemically as 4-tert-butyl-N-[6-(2-hydroxy-ethoxy)-5-(2-methoxy-phenoxy)-[2,2′]-bipyrimidin-4-yl]-benzenesulfonamide monohydrate). We manually grinded 62.5 mg film-coated tablets of […] ® (bosentan) for oral administration and mixed them with powdered food supplied to the animals at an active dose of 50 mg/kg/d for 14 days as previously described^3. […] The treated group (n=7) was compared to vehicle-treated animals (n=6). […]
Normalized albumin urinary excretion was evaluated from urine samples collected for 18 h in metabolic cages (Techniplast). Urinary creatinine and albumin were quantified spectrophotometrically using colorimetric methods (Olympus).
For light microscopy, half mouse kidneys were fixed and embedded in paraffin, and 3 μm-thick sections were cut. Histopathological changes were evaluated using Masson's trichrome coloration by an examiner who was blind to the experimental conditions. The proportion of crescentic glomeruli was determined by examination of at least 50 glomeruli per section.

These results are taken from patent US20120283190A1, “ENDOTHELIN INHIBITORS FOR THE TREATMENT OF RAPIDLY PROGRESSIVE GLOMERULONEPHRITIS” (Institut National De La Santé Et De La Recherche Medicale …, priority 2009, published 2012).

Where a SMILES comes first, the peptide text is derived from it. [ ]: non-standard residue; d: D form.

Regarding `CC(C)C[C@@H]1NC(=O)[C@@H](C(C)C)NC(=O)[C@@H]2CCCN2C(=O)[C@@H](CC(=O)O)NC(=O)[C@@H](Cc2c[nH]c3ccccc23)NC1=O` [BQ123] (cyclo(L[dW][dD]P[dV])), the “plasma urea concentration (index of renal failure)” value in test [1] is 17.5 ± 2.5 mmol/L.
As to `CCCC[C@@H](NC(=O)[C@@H](Cc1cn(C(=O)OC)c2ccccc12)NC(=O)[C@H](CC(C)(C)C)NC(=O)N1[C@H](C)CCC[C@@H]1C)C(=O)O` [BQ788], the “migration of cultured podocytes” value in test [2] is listed as “prominent action”. The “Albuminuria normalized to creatininuria” value in test [1] (day 7 after infusion of the anti-GBM serum, versus PBS-treated animals) was “prominent action”. Moreover, the “plasma urea concentration (index of renal failure)” value in test [1] is 12.3 ± 2.1 mmol/L.
Take `COc1ccccc1Oc1c(NS(=O)(=O)c2ccc(C(C)(C)C)cc2)nc(-c2ncccn2)nc1OCCO` [bosentan, 4-tert-butyl-N-[6-(2-hydroxy-ethoxy)-5-(2-methoxy-phenoxy)-[2,2′]-bipyrimidin-4-yl]-benzenesulfonamide monohydrate]: the “Albuminuria normalized to creatininuria, fold lower than in vehicle-treated counterparts” value in test [3] (day 5 after infusion of the anti-GBM serum, p=0.0053) came out at 5.8 fold. Besides, the “crescentic glomeruli, fold less than in vehicle-treated counterparts” value in test [3] (day 14 after infusion of the anti-GBM serum, p=0.0057) is on record as 14 fold. Also, the “fibrinogen deposition in glomeruli with disappearance of podocin positive podocytes” value in test [3] (mice with anti-GBM serum-induced RPGN) was “blunted”.
